# Assay results from ChEMBL document CHEMBL5465560, “Selectivity Literature for EUbOPEN Chemogenomic Library” (2024).
# Legend:
# [1] = molecular target: Serine/threonine-protein kinase SIK3 (Homo sapiens) (UniProt Q9Y2K2); assay: Selectivity interaction (KinomeScan (DiscoverX)) EUB0000229b SIK3; settings: at 10 µM
# [2] = molecular target: Serine/threonine-protein kinase MARK2 (Homo sapiens) (UniProt Q7KZI7); assay: Selectivity interaction (ActivX KiNativ screen (kinase selectivity in THP-1 cell lysates)) EUB0000639a MARK2; type: subcellular; settings: lysate, at 0.2 µM
# Chain of Serine/threonine-protein kinase MARK2 (Homo sapiens) (Q7KZI7 whole entry): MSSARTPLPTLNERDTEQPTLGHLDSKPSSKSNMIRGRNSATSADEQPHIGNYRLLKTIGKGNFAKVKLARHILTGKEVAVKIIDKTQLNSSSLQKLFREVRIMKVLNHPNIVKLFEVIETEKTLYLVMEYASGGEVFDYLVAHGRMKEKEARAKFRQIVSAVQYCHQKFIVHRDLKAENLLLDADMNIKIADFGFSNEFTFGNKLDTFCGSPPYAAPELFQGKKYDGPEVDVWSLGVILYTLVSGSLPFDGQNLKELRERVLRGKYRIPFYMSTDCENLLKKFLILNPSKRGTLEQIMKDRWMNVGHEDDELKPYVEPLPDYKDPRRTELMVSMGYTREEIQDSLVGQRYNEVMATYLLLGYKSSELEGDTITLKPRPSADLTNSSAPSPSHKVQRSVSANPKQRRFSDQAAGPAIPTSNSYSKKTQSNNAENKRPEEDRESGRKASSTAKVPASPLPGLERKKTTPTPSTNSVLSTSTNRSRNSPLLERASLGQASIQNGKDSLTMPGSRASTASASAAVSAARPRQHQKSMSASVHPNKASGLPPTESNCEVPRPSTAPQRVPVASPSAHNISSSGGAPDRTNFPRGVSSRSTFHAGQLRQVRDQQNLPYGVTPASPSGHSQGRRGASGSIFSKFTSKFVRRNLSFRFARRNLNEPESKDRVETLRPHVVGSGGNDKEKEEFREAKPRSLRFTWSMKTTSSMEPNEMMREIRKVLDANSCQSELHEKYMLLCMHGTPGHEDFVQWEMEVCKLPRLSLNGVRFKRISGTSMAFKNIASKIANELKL
# [3] = molecular target: Serine/threonine-protein kinase NIM1 (Homo sapiens, UniProt Q8IY84); assay: Selectivity interaction (KinomeScan (DiscoverX)) EUB0000595a NIM1K; settings: at 10 µM
# Chain of Serine/threonine-protein kinase NIM1 (Q8IY84 whole entry): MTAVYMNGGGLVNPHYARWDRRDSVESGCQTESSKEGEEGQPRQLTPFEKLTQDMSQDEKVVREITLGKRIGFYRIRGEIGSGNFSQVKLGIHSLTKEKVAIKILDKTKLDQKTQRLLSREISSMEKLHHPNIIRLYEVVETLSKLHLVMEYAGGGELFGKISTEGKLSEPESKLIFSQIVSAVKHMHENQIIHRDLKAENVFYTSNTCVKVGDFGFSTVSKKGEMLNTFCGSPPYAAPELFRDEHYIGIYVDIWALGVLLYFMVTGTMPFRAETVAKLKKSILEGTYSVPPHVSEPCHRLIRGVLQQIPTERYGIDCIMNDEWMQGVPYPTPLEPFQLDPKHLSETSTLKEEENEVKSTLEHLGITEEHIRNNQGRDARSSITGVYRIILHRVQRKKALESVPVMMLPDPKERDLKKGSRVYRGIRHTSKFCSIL
# [4] = molecular target: Tyrosine-protein kinase FRK (Homo sapiens) (UniProt P42685); assay: Selectivity interaction (KinomeScan (DiscoverX)) EUB0000045b FRK
# Chain of Tyrosine-protein kinase FRK (Homo sapiens) (P42685 whole entry): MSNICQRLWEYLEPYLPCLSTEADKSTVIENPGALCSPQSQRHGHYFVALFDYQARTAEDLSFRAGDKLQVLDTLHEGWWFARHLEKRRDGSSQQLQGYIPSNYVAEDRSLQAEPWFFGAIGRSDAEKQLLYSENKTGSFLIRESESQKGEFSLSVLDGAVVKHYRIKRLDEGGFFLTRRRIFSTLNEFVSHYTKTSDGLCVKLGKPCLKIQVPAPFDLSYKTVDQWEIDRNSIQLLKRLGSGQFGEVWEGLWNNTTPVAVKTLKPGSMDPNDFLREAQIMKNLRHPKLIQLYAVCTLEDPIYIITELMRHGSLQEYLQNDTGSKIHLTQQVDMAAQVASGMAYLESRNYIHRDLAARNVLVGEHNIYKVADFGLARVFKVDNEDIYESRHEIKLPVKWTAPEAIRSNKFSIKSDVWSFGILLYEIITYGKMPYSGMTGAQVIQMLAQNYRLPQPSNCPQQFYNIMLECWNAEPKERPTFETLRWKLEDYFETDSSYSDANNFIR
# [5] = molecular target: Receptor tyrosine-protein kinase erbB-2 (Homo sapiens, UniProt P04626); assay: Selectivity interaction (KinomeScan (DiscoverX)) EUB0000655a ERBB2; settings: at 10 µM
# Chain of Receptor tyrosine-protein kinase erbB-2 (P04626 whole entry): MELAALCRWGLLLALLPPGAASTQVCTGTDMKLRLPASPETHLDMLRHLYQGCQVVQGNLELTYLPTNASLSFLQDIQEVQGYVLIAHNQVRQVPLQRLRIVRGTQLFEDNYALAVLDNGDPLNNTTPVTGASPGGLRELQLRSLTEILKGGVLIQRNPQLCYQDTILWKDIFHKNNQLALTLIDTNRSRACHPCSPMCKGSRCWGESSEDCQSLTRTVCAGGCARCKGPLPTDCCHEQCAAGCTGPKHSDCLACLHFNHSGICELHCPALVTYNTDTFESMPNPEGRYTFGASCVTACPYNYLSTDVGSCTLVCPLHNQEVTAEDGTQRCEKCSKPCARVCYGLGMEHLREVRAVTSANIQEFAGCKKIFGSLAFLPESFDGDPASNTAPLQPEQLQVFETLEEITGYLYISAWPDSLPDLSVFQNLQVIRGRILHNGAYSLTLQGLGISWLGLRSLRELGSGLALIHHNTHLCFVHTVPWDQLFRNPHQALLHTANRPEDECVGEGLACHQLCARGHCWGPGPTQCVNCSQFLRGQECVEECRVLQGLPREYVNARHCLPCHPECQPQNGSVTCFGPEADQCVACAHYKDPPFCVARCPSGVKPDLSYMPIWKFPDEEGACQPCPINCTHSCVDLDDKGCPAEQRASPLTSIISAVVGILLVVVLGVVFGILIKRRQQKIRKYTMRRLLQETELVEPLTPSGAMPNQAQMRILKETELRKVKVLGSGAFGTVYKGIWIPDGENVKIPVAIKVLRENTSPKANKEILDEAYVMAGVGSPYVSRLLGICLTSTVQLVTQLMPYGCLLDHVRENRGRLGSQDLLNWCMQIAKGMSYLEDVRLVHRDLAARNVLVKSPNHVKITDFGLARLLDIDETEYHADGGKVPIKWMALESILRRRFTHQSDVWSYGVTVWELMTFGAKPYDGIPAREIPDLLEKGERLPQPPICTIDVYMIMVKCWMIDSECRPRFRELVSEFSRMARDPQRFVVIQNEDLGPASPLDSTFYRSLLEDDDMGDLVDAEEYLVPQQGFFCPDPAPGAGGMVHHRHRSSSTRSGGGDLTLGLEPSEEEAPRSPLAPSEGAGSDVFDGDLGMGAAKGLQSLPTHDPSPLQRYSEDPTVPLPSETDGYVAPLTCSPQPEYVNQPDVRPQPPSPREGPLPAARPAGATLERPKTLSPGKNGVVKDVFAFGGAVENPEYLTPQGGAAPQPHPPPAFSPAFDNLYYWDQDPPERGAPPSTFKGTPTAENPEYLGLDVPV
# [6] = molecular target: T1, Serine/threonine-protein kinase Sgk1 (Homo sapiens) (UniProt O00141); assay: Selectivity interaction (KinomeScan (DiscoverX)) EUB0000695a SGK1; settings: at 100 nM
# T1 sequence (whole entry): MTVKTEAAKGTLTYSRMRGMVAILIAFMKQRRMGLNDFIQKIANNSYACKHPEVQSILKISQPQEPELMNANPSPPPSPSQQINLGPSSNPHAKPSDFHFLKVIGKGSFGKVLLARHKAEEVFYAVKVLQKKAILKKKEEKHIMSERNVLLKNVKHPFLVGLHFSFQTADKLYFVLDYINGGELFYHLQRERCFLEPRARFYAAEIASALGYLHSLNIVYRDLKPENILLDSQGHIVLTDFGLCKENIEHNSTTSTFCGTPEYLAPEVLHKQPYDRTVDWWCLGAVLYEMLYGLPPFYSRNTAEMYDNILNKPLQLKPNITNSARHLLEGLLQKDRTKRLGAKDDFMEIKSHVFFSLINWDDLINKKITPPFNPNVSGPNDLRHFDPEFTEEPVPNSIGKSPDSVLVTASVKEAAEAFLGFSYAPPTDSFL
# [7] = molecular target: T2, Serine/threonine-protein kinase ULK1 (Homo sapiens) (UniProt O75385); assay: Selectivity interaction (KinomeScan (DiscoverX)) EUB0000695a ULK1; settings: at 100 nM
# T2 sequence (whole entry): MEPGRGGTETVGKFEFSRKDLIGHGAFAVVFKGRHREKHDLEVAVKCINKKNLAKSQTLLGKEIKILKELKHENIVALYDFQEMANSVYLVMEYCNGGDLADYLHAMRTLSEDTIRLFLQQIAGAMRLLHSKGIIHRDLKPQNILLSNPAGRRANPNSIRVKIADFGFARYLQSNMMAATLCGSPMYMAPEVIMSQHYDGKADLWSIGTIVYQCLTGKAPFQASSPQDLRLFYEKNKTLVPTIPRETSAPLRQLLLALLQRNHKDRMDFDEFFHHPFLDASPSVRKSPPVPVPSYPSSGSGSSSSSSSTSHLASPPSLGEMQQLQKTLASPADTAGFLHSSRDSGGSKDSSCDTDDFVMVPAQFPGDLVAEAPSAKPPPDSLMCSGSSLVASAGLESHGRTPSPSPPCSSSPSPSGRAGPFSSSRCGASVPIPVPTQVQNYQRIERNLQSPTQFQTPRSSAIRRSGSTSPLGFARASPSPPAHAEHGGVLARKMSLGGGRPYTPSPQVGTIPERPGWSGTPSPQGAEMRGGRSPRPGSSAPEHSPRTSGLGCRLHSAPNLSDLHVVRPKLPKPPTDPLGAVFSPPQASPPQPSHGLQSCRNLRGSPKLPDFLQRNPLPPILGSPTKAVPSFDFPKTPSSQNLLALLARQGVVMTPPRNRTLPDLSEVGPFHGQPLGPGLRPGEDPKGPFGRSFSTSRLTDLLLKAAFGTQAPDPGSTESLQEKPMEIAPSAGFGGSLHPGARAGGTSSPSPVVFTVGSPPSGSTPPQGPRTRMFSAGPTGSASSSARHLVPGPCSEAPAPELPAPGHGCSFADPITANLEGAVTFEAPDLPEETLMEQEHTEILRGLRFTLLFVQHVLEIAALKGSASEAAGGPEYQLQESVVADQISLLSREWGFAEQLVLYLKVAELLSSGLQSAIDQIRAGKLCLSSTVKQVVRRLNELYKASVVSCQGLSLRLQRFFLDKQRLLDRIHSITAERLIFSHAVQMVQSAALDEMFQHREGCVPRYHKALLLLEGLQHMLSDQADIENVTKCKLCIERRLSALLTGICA
# Chain of Serine/threonine-protein kinase SIK3 (Homo sapiens) (Q9Y2K2 whole entry, looked up): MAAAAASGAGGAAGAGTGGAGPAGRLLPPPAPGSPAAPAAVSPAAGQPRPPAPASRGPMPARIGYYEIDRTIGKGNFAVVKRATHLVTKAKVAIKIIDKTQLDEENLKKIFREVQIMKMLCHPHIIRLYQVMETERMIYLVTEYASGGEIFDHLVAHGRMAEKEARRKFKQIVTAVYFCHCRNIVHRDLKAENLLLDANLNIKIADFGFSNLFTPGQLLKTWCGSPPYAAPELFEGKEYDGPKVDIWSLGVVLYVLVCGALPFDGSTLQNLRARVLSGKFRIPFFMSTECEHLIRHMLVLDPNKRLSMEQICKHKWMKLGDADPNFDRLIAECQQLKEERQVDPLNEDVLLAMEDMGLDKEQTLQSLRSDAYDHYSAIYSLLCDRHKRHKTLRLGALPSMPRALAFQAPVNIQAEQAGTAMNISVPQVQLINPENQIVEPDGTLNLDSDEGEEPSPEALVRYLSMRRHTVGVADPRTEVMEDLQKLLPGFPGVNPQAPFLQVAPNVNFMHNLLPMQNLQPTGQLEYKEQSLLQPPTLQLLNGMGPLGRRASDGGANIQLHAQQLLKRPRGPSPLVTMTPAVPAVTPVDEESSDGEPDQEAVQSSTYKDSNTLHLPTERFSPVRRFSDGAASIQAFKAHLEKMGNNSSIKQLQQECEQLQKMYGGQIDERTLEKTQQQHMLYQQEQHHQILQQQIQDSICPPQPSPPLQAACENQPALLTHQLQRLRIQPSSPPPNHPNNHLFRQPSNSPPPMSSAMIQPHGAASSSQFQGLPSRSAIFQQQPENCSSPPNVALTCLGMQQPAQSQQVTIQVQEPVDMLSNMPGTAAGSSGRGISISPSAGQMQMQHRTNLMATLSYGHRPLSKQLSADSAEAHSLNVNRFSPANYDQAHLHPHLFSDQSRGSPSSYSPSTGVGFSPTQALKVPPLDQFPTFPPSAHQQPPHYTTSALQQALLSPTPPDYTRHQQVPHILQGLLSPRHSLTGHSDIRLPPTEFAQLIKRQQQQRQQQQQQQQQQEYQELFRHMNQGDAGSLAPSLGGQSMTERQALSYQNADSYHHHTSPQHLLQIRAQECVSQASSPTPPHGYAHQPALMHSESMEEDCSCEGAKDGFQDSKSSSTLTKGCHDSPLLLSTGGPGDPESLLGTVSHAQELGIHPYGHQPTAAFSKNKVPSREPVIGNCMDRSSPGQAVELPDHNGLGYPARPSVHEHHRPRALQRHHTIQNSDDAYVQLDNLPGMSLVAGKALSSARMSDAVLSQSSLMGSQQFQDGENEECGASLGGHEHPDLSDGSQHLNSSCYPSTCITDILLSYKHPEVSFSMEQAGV
structure (smiles),measurement,setting,value
COc1cc(N(C)c2ccnc3ccc(C(F)(F)F)cc23)cc(OC)c1OC,% binding,[1],74%
CC[C@@H]1[C@H](F)C(=O)N[C@@H]1COc1nccc2cc(C(N)=O)c(OC)cc12 [ZIMLOVISERTIB],% of inhibition,[2],4.2%
COCC(=O)NC/C=C/c1ccc2ncnc(Nc3ccc(Oc4ccc(C)nc4)c(C)c3)c2c1 [CP-724714],% of control,[3],87%
C=CC(=O)Nc1cc(-n2c(=O)ccc3cnc4ccc(-c5ccc(NS(C)(=O)=O)cc5)cc4c32)ccc1C,% of control,[4]; at 1 µM,100%
same,% of control,[4]; at 10 µM,98%
CN(C)CCOc1ccc(-c2nc(-c3ccncc3)c(-c3ccc4c(c3)CC/C4=N\O)[nH]2)cc1,% of control,[5],40%
Cc1cc(F)c(C(=O)Nc2cccc(-c3nncn3C(C)C)n2)cc1-n1cnc(C2CC2)c1,% of control,[6],90%
same,% of control,[7],100%
